Patent publication US20220125051A1, “PRE-HARVEST DESICCATION METHOD” (SYNGENTA CROP PROTECTION AG, priority 2019, published 2022)
Like-named read-outs stand apart in the source and are kept apart here.

Legend:
Experiment in all cases: Post-emergence efficacy, Method A
Assay type in all cases: in vivo
[1] = test system: Amaranthus palmeri (AMAPA); details: Amaranthus palmeri, post-emergence, 312 h, evaluated after 13 days
In short: (§1)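 Sow in standard soil; grow 14 d under glasshouse control (24/16 °C, 14 h light, 65% humidity). Spray post-emergence with compound formulated in acetone/IF50, diluted in Empicol ESC70 (0.25% or 1%) + 1% ammonium sulphate. Return to glasshouse, water twice daily, score at 13 d on a 0–100 damage scale.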

[2] = test system: Chenopodium album (CHEAL); details: Chenopodium album, post-emergence, 312 h, evaluated after 13 days
In short: as §1

[3] = test system: Digitaria sanguinalis (DIGSA); details: Digitaria sanguinalis, post-emergence, 312 h, evaluated after 13 days
In short: as §1

[4] = test system: Echinochloa crus-galli (ECHCG); details: Echinochloa crus-galli, post-emergence, 312 h, evaluated after 13 days
In short: as §1

Eleusine indica (ELEIN) = details: Eleusine indica, post-emergence, 312 h, evaluated after 13 days
In short: as §1

[5] = test system: Euphorbia heterophylla (EPHHL); details: Euphorbia heterophylla, post-emergence, 312 h, evaluated after 13 days
In short: as §1

[6] = test system: Ipomoea hederacea (IPOHE); details: Ipomoea hederacea, post-emergence, 312 h, evaluated after 13 days
In short: as §1

Lolium perenne (LOLPE) = details: Lolium perenne, post-emergence, 312 h, evaluated after 13 days
In short: as §1

Setaria faberi (SETFA) = details: Setaria faberi, post-emergence, 312 h, evaluated after 13 days
In short: as §1

[7] = Application Rate 500 g/Ha, Method A, read-out: Control of weed species after post-emergence application, AMAPA (100=total damage to plant; 0=no damage to plant)
[8] = Application Rate 500 g/Ha, Method A, read-out: Control of weed species after post-emergence application, CHEAL (100=total damage to plant; 0=no damage to plant)
[9] = Application Rate 500 g/Ha, Method A, read-out: Control of weed species after post-emergence application, DIGSA (100=total damage to plant; 0=no damage to plant)
[10] = Application Rate 500 g/Ha, Method A, read-out: Control of weed species after post-emergence application, ECHCG (100=total damage to plant; 0=no damage to plant)
[11] = Application Rate 500 g/Ha, Method A, read-out: Control of weed species after post-emergence application, ELEIN (100=total damage to plant; 0=no damage to plant)
[12] = Application Rate 500 g/Ha, Method A, read-out: Control of weed species after post-emergence application, EPHHL (100=total damage to plant; 0=no damage to plant)
[13] = Application Rate 500 g/Ha, Method A, read-out: Control of weed species after post-emergence application, IPOHE (100=total damage to plant; 0=no damage to plant)
[14] = Application Rate 500 g/Ha, Method A, read-out: Control of weed species after post-emergence application, LOLPE (100=total damage to plant; 0=no damage to plant)
[15] = Application Rate 500 g/Ha, Method A, read-out: Control of weed species after post-emergence application, SETFA (100=total damage to plant; 0=no damage to plant)
[16] = Application rate 500 g/Ha, 100=total damage to plant, 0=no damage to plant, read-out: Control of weed species after post-emergence application, AMAPA
[17] = Application rate 500 g/Ha, 100=total damage to plant, 0=no damage to plant, read-out: Control of weed species after post-emergence application, CHEAL
[18] = Application rate 500 g/Ha, 100=total damage to plant, 0=no damage to plant, read-out: Control of weed species after post-emergence application, DIGSA
[19] = Application rate 500 g/Ha, 100=total damage to plant, 0=no damage to plant, read-out: Control of weed species after post-emergence application, ECHCG
[20] = Application rate 500 g/Ha, 100=total damage to plant, 0=no damage to plant, read-out: Control of weed species after post-emergence application, ELEIN
[21] = Application rate 500 g/Ha, 100=total damage to plant, 0=no damage to plant, read-out: Control of weed species after post-emergence application, EPHHL
[22] = Application rate 500 g/Ha, 100=total damage to plant, 0=no damage to plant, read-out: Control of weed species after post-emergence application, IPOHE
[23] = Application rate 500 g/Ha, 100=total damage to plant, 0=no damage to plant, read-out: Control of weed species after post-emergence application, LOLPE
[24] = Application rate 500 g/Ha, 100=total damage to plant, 0=no damage to plant, read-out: Control of weed species after post-emergence application, SETFA

Row | Compound | pest or weed control at 500 g/ha [1, 7] [%] | pest or weed control at 500 g/ha [2, 8] [%] | pest or weed control at 500 g/ha [3, 9] [%] | pest or weed control at 500 g/ha [4, 10] [%] | pest or weed control at 500 g/ha (Eleusine indica (ELEIN); [11]) [%] | pest or weed control at 500 g/ha [5, 12] [%] | pest or weed control at 500 g/ha [6, 13] [%] | pest or weed control at 500 g/ha (Lolium perenne (LOLPE); [14]) [%] | pest or weed control at 500 g/ha (Setaria faberi (SETFA); [15]) [%] | pest or weed control at 500 g/ha [1, 16] [%] | pest or weed control at 500 g/ha [2, 17] [%] | pest or weed control at 500 g/ha [3, 18] [%] | pest or weed control at 500 g/ha [4, 19] [%] | pest or weed control at 500 g/ha (Eleusine indica (ELEIN); [20]) [%] | pest or weed control at 500 g/ha [5, 21] [%] | pest or weed control at 500 g/ha [6, 22] [%] | pest or weed control at 500 g/ha (Lolium perenne (LOLPE); [23]) [%] | pest or weed control at 500 g/ha (Setaria faberi (SETFA); [24]) [%]
1 | O=S(=O)([O-])CC[n+]1ccc(-c2ccc(C(F)(F)F)cn2)cn1 [Compound A174] | 100 | 40 | 50 | 50 | 60 | 60 | 50 | 60 | 60 | – | – | – | – | – | – | – | – | –
2 | CC(CC(=O)O)[n+]1ccc(-c2ccncn2)cn1 (stereo not drawn) [Compound A172] | 30 | 60 | 80 | 50 | 70 | 50 | 40 | 20 | 50 | – | – | – | – | – | – | – | – | –
3 | CC(CNS(=O)(=O)[O-])[n+]1ccc(-c2ncccn2)cn1 (stereo not drawn) [Compound A223] | 100 | 90 | 90 | 70 | 90 | 80 | 60 | 80 | 80 | – | – | – | – | – | – | – | – | –
4 | Cc1ccnc(-c2cc[n+](CCS(=O)(=O)[O-])nc2)n1 [Compound A21] | – | – | – | – | – | – | – | – | – | 100 | 80 | 90 | 60 | 100 | 80 | 40 | 80 | 90
5 | O=C(O)CC[n+]1ccc(-c2cc(C(F)(F)F)ncn2)cn1 [Compound A119] | – | – | – | – | – | – | – | – | – | 100 | 100 | 40 | 30 | 30 | 70 | 50 | 30 | 40
6 | Cc1cnc(-c2cc[n+](CCC(=O)[O-])nc2)nc1C [Compound A96] | – | – | – | – | – | – | – | – | – | 70 | 20 | 40 | 70 | 40 | 90 | 40 | 60 | 70
7 | Cc1cnc(-c2cc[n+](CCC(=O)O)nc2)c(C)c1 [Compound A177] | 60 | 50 | 10 | 0 | 10 | 30 | 20 | 0 | 0 | – | – | – | – | – | – | – | – | –
8 | CO[N-]C(=O)C[n+]1ccc(-c2ncccn2)cn1 [Compound A219] | 100 | 80 | 70 | 40 | 100 | 90 | 60 | 70 | 90 | – | – | – | – | – | – | – | – | –
9 | O=c1cc(-c2cc[n+](CCCS(=O)(=O)[O-])nc2)nc[nH]1 [Compound A116] | – | – | – | – | – | – | – | – | – | 100 | 80 | 30 | 20 | 20 | 50 | 10 | 10 | 30
10 | O=C(O)CC[n+]1ccc(-c2ccnc(C(F)(F)F)n2)cn1 [Compound A118] | – | – | – | – | – | – | – | – | – | 80 | 80 | 90 | 40 | 70 | 90 | 60 | 90 | 70
11 | COC(=O)C[n+]1ccc(-c2ncccn2)cn1 [Compound A2, methyl 2-(4-pyrimidin-2-ylpyridazin-1-ium-1-yl)acetate bromide] | – | – | – | – | – | – | – | – | – | 60 | 20 | 40 | 50 | 30 | 90 | 10 | 0 | 80
12 | O=C(O)CC[n+]1ccc(-c2nccc(=O)[nH]2)cn1 [Compound A127] | – | – | – | – | – | – | – | – | – | 10 | 20 | 80 | 40 | 20 | 20 | 10 | 10 | 30
13 | O=S(=O)([O-])CC[n+]1ccc(-c2ccnc(C(F)(F)F)c2)cn1 [Compound A165] | 100 | 50 | 60 | 70 | 70 | 50 | 40 | 60 | 60 | – | – | – | – | – | – | – | – | –
14 | O=c1[nH]c(-c2cc[n+](CCCS(=O)(=O)[O-])nc2)ncc1Cl [Compound A173] | 30 | 50 | 20 | 30 | 10 | 40 | 20 | 10 | 30 | – | – | – | – | – | – | – | – | –
15 | CC(CC(=O)O)[n+]1ccc(-c2ncccn2)cn1 (stereo not drawn) [Compound A40, 3-(4-pyrimidin-2-ylpyridazin-1-ium-1-yl)butanoic acid 2,2,2-trifluoroacetate] | – | – | – | – | – | – | – | – | – | 90 | 70 | 90 | 90 | 90 | 90 | 100 | 90 | 100
